Experimental data reported in paper PMC2656214, “A circuit supporting concentration-invariant odor perception in Drosophila” (Journal of Biology, 2009).

Assays:
Assay in all cases: G-CaMP calcium imaging of OSN axon terminals
Format in all cases: cell-based
Settings in all cases: 10^-2 odor dilution in paraffin oil, 1 s pulse
Or42a = biological target: T1, Or42a (Drosophila melanogaster, UniProt Q9V9I2)
T1 construct: native receptor in Or42a olfactory sensory neuron of larva; G-CaMP calcium imaging; with Odorant receptor coreceptor
T1 sequence (Q9V9I2 1-406): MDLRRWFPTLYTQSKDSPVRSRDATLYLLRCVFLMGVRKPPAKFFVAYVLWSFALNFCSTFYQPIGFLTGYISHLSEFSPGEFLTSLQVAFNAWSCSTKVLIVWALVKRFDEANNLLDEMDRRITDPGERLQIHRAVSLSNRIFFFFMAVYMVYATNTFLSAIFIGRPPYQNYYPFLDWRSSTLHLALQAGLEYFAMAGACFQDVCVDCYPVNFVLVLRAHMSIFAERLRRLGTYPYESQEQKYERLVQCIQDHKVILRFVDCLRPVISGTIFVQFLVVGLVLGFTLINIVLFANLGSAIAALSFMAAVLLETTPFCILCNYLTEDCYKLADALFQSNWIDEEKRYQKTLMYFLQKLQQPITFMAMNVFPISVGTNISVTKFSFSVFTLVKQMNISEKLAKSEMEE
T1 sequence (Q9VNB5 1-486 partner): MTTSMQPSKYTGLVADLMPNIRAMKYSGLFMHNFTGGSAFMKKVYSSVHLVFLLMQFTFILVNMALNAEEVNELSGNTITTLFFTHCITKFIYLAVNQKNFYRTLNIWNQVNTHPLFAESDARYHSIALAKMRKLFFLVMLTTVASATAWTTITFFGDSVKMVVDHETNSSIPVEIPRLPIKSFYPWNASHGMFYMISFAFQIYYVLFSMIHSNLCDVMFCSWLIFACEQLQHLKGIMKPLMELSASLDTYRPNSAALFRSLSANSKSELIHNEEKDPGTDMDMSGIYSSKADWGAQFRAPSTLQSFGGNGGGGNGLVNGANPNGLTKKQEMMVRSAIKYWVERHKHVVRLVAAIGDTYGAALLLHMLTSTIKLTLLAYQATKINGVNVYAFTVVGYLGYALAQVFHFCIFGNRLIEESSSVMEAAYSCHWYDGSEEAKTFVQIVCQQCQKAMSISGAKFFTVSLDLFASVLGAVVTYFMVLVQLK

Or35a = biological target: T2, Or35a (Drosophila melanogaster, UniProt Q9V3Q2)
T2 construct: native receptor in Or35a olfactory sensory neuron of larva; G-CaMP1.3 calcium imaging at axon terminals; with Odorant receptor coreceptor
T2 sequence (Q9V3Q2 1-409): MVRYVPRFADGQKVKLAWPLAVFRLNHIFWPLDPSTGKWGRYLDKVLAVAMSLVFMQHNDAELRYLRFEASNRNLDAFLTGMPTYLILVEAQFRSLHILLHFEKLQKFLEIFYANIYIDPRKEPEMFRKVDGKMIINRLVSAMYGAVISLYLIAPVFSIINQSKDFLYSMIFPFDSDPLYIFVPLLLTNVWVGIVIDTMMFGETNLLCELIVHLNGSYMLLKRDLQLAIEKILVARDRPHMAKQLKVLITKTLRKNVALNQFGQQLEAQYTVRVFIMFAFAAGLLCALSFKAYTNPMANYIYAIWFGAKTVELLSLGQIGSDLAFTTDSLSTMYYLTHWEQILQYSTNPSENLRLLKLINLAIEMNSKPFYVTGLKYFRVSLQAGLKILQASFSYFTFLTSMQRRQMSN
T2 sequence (Q9VNB5 1-486 partner): T1 sequence (Q9VNB5 1-486 partner)

Or82a = biological target: T3, Or82a (Drosophila melanogaster, UniProt P82986)
T3 construct: native receptor in Or82a olfactory sensory neuron of larva; G-CaMP1.3 calcium imaging at axon terminals; with Odorant receptor coreceptor
T3 sequence (P82986 1-385): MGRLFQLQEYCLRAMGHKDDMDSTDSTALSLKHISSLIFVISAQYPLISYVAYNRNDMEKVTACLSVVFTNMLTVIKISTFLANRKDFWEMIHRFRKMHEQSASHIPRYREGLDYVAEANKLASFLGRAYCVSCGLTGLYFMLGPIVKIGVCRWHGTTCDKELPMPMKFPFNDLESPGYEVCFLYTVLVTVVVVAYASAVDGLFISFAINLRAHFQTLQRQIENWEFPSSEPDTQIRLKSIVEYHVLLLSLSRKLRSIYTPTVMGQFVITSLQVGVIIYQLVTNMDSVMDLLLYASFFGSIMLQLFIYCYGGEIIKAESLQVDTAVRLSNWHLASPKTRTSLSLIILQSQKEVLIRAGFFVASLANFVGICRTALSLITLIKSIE
T3 sequence (Q9VNB5 1-486 partner): T1 sequence (Q9VNB5 1-486 partner)

SMILES | G-CaMP calcium imaging of OSN axon terminals (Or35a) | other results
CCCCCC(C)=O [2-Heptanone] | – | G-CaMP calcium imaging of OSN axon terminals (Or42a): 2-Heptanone, which selectively activates Or42a but not Or42b OSNs
O=C1CCCCC1 [cyclohexanone] | hexyl acetate and cyclohexanone selectively activated only Or35a | –
CC(=O)OC/C=C(\C)CCC=C(C)C [geranyl acetate] | – | G-CaMP calcium imaging of OSN axon terminals (Or82a): Or82a-expressing neurons responded only to geranyl acetate
CCCCCCOC(C)=O [hexyl acetate] | hexyl acetate and cyclohexanone selectively activated only Or35a | –
